Data reported in US20130345214A1, “Lipoxygenase Inhibitors” (SRI International, Inc., priority 2011, published 2013).
pIC50: −log10 of the molar value. “Also recorded” adds a separate entry of the source.

Legend:
[1] = glucose metabolism and body weight in mice after oral treatment; format: in vivo
[2] = tested on: Akt and ERK activation; assay: Akt and ERK activation; format: cell-based; conditions: by inhibiting 12-LOX mediated metabolism of arachidonic acid
[3] = tested on: 15-LOX; assay: enzyme panel screening, 15-LOX; format: biochemical
[4] = molecular target: T1, 5-LOX (Homo sapiens, UniProt P09917); assay: enzyme panel screening, 5-LOX; format: biochemical
T1 sequence (P09917 1-674): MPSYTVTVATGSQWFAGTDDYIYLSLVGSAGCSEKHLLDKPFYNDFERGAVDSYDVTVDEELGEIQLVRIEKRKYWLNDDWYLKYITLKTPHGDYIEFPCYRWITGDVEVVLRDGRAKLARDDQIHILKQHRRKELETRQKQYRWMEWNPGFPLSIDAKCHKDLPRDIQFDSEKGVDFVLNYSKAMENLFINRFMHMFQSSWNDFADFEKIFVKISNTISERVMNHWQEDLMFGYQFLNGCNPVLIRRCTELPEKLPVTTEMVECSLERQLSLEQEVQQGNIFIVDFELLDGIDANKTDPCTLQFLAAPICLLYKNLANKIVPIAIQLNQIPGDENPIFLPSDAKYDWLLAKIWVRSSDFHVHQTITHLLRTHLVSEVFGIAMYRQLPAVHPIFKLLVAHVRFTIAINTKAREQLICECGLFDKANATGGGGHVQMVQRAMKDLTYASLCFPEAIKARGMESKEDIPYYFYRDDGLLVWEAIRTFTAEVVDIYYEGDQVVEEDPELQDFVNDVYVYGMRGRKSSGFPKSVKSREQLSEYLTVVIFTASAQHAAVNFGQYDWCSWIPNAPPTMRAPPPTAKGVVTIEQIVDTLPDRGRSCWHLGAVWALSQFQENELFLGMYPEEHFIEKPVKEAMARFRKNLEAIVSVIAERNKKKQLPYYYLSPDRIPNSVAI

[5] = molecular target: T2, COX-2 (Homo sapiens, UniProt P35354); assay: effect on cyclooxygenase COX-2 activity; format: biochemical
T2 sequence (P35354 18-604): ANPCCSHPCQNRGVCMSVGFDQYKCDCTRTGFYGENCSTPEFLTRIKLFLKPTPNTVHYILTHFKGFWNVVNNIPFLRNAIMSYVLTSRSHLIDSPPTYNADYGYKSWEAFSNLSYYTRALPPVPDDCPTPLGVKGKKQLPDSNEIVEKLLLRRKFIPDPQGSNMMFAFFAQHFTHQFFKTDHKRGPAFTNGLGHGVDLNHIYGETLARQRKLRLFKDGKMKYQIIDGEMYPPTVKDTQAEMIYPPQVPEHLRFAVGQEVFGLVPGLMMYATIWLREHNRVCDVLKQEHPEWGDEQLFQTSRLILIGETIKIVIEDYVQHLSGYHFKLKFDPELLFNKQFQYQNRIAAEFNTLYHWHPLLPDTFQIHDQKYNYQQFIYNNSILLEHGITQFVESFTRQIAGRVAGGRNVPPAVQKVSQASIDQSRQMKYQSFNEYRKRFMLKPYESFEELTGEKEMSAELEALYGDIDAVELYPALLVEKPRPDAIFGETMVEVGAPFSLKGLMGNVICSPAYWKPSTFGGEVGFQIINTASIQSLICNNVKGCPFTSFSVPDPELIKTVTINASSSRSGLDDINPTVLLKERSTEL

[6] = molecular target: kinase targets, including Akt(1,2,3), PI3K, and PDK1; assay: kinase panel screening; format: biochemical; conditions: broad selection of kinase targets incl. Akt(1,2,3)
[7] = molecular target: T3, human 12-LOX (Homo sapiens, UniProt P18054); assay: colorimetric platelet 12-LOX activity assay (ferric oxidation of xylenol orange, human blood platelets); format: cell-based
T3 construct: ferric oxidation of xylenol orange from arachidonic acid in human blood platelets; endogenous in cells; host or cells: human blood platelets
T3 sequence (P18054 1-663): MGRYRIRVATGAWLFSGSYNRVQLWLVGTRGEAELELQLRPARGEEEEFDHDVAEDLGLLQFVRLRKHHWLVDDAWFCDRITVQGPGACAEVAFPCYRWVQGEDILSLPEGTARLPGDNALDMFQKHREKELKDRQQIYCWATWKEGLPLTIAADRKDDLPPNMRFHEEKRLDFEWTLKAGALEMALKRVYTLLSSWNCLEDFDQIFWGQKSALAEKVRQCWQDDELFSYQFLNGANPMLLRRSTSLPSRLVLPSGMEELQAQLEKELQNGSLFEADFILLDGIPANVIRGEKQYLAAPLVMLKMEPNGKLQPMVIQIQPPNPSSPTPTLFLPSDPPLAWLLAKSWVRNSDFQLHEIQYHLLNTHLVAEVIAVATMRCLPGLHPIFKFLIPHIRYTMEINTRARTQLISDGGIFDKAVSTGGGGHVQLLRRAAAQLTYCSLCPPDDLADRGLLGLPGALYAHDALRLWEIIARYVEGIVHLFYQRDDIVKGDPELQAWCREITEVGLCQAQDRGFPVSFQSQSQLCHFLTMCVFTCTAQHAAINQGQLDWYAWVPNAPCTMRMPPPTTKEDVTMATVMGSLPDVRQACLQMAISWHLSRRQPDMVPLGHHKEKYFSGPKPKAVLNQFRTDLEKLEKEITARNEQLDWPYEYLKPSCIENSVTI
Text: (§1) Table 3 provides results for exemplary subject bisindole compounds on 5-LOX, 12-LOX and 15-LOX.

[8] = molecular target: COX-1 (Homo sapiens, UniProt P23219); assay: effect on cyclooxygenase COX-1 activity; format: biochemical
Sequence of COX-1 (P23219 24-599): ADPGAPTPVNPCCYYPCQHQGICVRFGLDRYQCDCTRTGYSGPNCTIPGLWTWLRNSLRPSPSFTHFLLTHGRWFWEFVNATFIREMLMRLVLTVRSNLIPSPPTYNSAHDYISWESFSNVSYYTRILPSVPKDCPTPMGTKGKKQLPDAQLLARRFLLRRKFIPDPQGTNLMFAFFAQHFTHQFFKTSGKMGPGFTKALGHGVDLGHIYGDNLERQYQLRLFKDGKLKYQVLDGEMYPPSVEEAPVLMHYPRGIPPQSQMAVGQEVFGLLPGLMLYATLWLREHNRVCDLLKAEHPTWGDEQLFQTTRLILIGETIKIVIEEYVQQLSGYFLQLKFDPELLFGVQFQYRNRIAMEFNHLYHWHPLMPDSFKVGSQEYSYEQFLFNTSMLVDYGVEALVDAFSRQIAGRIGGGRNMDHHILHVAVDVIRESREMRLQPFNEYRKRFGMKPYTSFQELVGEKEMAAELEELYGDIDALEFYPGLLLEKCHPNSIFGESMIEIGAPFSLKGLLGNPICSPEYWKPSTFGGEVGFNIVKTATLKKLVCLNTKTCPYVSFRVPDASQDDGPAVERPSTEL

[9] = molecular target: T4, 15-LOX-2 (Homo sapiens, UniProt O15296); assay: in vitro 15-LOX-2 inhibition (Table 3); format: biochemical
T4 sequence (O15296 1-676): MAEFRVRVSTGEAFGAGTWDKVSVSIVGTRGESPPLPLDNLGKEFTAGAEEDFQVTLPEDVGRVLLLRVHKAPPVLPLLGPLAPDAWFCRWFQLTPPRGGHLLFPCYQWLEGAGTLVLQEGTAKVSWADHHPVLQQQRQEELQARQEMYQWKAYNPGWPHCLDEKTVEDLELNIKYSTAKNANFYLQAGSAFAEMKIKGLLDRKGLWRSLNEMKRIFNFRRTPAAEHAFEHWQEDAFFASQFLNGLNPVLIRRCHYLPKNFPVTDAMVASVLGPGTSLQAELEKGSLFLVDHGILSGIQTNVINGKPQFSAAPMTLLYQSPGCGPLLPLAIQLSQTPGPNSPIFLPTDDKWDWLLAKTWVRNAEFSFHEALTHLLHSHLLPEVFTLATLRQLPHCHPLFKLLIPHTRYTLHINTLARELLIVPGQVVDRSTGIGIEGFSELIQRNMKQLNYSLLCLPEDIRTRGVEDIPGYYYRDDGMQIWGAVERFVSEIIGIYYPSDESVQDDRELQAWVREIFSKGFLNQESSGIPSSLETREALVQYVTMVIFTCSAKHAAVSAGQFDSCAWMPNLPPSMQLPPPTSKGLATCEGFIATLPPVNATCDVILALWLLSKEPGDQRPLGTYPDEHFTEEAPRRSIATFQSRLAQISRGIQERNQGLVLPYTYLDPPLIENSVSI
Text: as §1

[10] = molecular target: T1, 5-LOX; assay: fluorescence-based enzyme assay of human 5-LOX (Table 3); format: biochemical; conditions: 3 μM
Text: as §1

| kinase inhibition [6] | 12-LOX enzyme activity inhibition ([7]; 10 uM, human blood platelets, cell-based assay) | pIC50 ([7]; cell-based enzyme assay) | inhibition at 3 µM [9] | inhibition at 3 µM [10] | inhibition at 3 µM [7] | SMILES | effects on glucose metabolism [1] | effects on body weights ([1]; oral, 500 mg/kg/day, 14 days) | effects on fasting glucose levels ([1]; oral, 500 mg/kg/day, 14 days) | Akt and ERK activation [2] | effect on 15-LOX activity [3] | effect on 5-LOX activity [4] | effect on COX-2 activity [5] | selectivity for 12-LOX ([7]; versus panels of kinases and enzymes incl. 5-LOX and 15-LOX) | effect on COX-1 activity [8] |
| --- | --- | --- | --- | --- | --- | --- | --- | --- | --- | --- | --- | --- | --- | --- | --- |
| not a kinase inhibitor | inhibit 12-LOX enzyme activity | 8.00 |  |  |  | CCOC(=O)c1ccc2[nH]c3c(OC)c4[nH]c5ccc(C(=O)OCC)cc5c4cc3c2c1 [Compound (1)] | no adverse effects on glucose metabolism | no adverse effects | no adverse effects | inhibit Akt and ERK activation | does not significantly affect the activity | does not significantly affect the activity | does not significantly affect the activity | selective for 12-LOX; also recorded: selectively inhibits 12-lipoxygenase enzyme activity; also recorded: selectively inhibits human 12-LOX | does not significantly affect the activity |
|  |  |  | 17% | 75% | 85% | CN(C)CCOc1c2[nH]c3ccc(F)cc3c2c(Cl)c2c1[nH]c1ccc(F)cc12 [drawing 18] |  |  |  |  |  |  |  |  |  |
|  |  |  | 41% | 87% | 87% | Fc1ccc2[nH]c3c(OC[C@@H]4C[C@H](F)CN4)c4[nH]c5ccc(F)cc5c4cc3c2c1 [drawing 19] |  |  |  |  |  |  |  |  |  |
|  |  |  | 10% | 37% | 75% | CCOC(=O)c1ccc2[nH]c3c(O[C@H]4CCNC4)c4[nH]c5ccc(C(=O)OCC)cc5c4cc3c2c1 [drawing 20] |  |  |  |  |  |  |  |  |  |
